Data set [1] deals with NFKBIZ mRNA. As to the kind of experiment: NFKBIZ mRNA expression by RT-qPCR in IL-36-stimulated HaCaT cells. The format is cell-based, human. Particulars: IL-36-stimulated (100 ng/ml, 2 h) HaCaT cells, nanomicelles with 10 μM ASONFKBIZ-h, 6 h + 48 h. The procedure: HaCaT cells from human keratinocyte cell line were inoculated in a 6-well plate at a density of 1×10^5 cells/well and cultured until adherence. The cells were then stimulated with 100 ng/ml interleukin-36 (IL-36) for 2 h. After washing with 1×PBS buffer, 1 mL of Opti-MEM medium containing ASONFKBIZ-h+Lipo2000 complex and CsA3-ASONFKBIZ-h nanomicelles (all containing 10 μM ASONFKBIZ-h) were added, respectively. After incubation with HaCaT cells for 6 h, the cells were transferred into fresh DMEM medium, while cells without any treatment or stimulated with IL-36 alone were used as a control, all cells were incubated at 37° C. for 48 h. The cells were collected and RNA was extracted for RT-qPCR to analyze the expression level of the NFKBIZ mRNA in HaCaT cells, and experimental results were shown in FIG. 51.
HaCaT cells from human keratinocyte cell line were inoculated in a 6-well plate at a density of 1×10^5 cells/well and cultured until adherence. The cells were then stimulated with 100 ng/ml interleukin-36 (IL-36) for 2 h. After washing with 1×PBS buffer, 1 mL of Opti-MEM medium containing ASONFKBIZ-h+Lipo2000 complex and 10TA-ASONFKBIZ-h nanomicelles (all containing 10 μM ASONFKBIZ-h) were added, respectively. […]

Data set [2] deals with NFKBIZ mRNA. As to the kind of experiment: NFKBIZ mRNA expression by RT-qPCR in LPS-stimulated HCECs. Particulars: LPS-stimulated (100 ng/mL) HCECs, 10 μM ASO or siRNA, without transfection reagent, 6 h + 48 h. It counts as cell-based, human. On the procedure:
HCECs were inoculated in a 6-well plate at a density of 1×10^5 cells/well and cultured until adherence. The cells were then stimulated with 100 ng/mL lipopolysaccharide (LPS) overnight. After removing the supernatant, 1 mL of Opti-MEM medium containing ASONFKBIZ-h, ASONFKBIZ-h+Lipofectamine2000 (Lipo2000), and CsA-ASONFKBIZ-h (all containing 10 µM ASO) were added, respectively. Cells without any treatment were used as a blank reference (Mock). After incubation at 37° C. for 6 h, the cells were transferred into DMEM medium and incubated for another 48 h. The cells were collected and RNA was extracted for RT-qPCR to analyze the expression level of the NFKBIZ mRNA in HCECs, and experimental results were shown in FIG. 9. The expression level of NFKBIZ mRNA in HCECs after LPS stimulation was about 1.3 times that of normal cells. […] After adding CsA-ASONFKBIZ-h for co-incubation, the expression of NFKBIZ mRNA was reduced to about 0.8 times that of normal cells.
(§1) HCECs were inoculated in a 6-well plate at a density of 1×10^5 cells/well and cultured until adherence. The cells were then stimulated with 100 ng/mL LPS overnight. After removing the supernatant, 1 mL of Opti-MEM medium containing ASONFKBIZ-h+Lipo2000 complex and 2CsA-ASONFKBIZ-h nanomicelles (all containing 10 µM ASO) were added, respectively. After incubation at 37° C. for 6 h, the cells were transferred into DMEM medium and incubated for another 48 h. The cells were collected and RNA was extracted for RT-qPCR to analyze the expression level of the NFKBIZ mRNA in HCECs, and experimental results were shown in FIG. 12.
as §1, with “ng/ml” for “ng/mL”, “3CsA-ASONFKBIZ-h” for “2CsA-ASONFKBIZ-h”, “15.” for “12.”
HCECs were inoculated in a 6-well plate at a density of 1×10^5 cells/well and cultured until adherence. The cells were then stimulated with 100 ng/mL LPS overnight. 1 mL of Opti-MEM medium containing ASONFKBIZ-h+Lipo2000 complex and CsA3-ASONFKBIZ-h nanomicelles (all containing 10 µM ASO) were added, respectively. After incubation at […]. 37° C. for 6 h, the cells were transferred into DMEM medium and incubated for another 48 h. After collected and RNA was extracted for RT-qPCR to evaluate the expression level of NFKBIZ mRNA in HCECs, and the experimental results were shown in FIG. 23.
HCECs were inoculated in a 6-well plate at a density of 1×10^5 cells/well and cultured overnight until adherence. The cells were then stimulated with 100 ng/ml LPS for 12 h. After removing the supernatant, 1 mL of Opti-MEM medium containing siRNANFKBIZ-h+Lipo2000 complex and nCsA-siRNANFKBIZ-h (n=1, 2, 3) conjugates and nanomicelles (all containing 10 μM siRNA) were added, respectively. After incubation at 37° C. for 6 h, the cells were transferred into DMEM medium and incubated for another 48 h. The cells were collected and RNA was extracted for RT-qPCR to evaluate the expression of NFKBIZ mRNA in HCECs, and experimental results were shown in FIG. 27. […]

For “CsA3-ASONFKBIZ-h: CsA trimer on tripropargyl linker at 3′ end of ASO targeting human NFKBIZ (SEQ ID NO: 7) (ATCAGACAACGAATCGGGC; 3'-NHS ASO with tripropargyl linker carrying three cyclosporin A, chemistry not given here, further chemistry not given here)”, the “NFKBIZ mRNA expression relative to normal cells” value in data set [1] is recorded as “about 0.8 times”. The “expression of NFKBIZ mRNA relative to normal cells” value in data set [2] is on record as “about 0.5 times that of normal cells”.

Source of the values: patent US20250367302A1, “SMALL MOLECULE DRUG-OLIGONUCLEOTIDE CONJUGATE AND USE THEREOF” (SHANGHAI JIAO TONG UNIVERSITY, priority 2022, published 2025).
